Earlier results in patent US20090110724A1, “COMPOSITIONS AND METHODS FOR TREATMENT OF PAIN” (Everett Laboratories, Inc., priority 2007, published 2009).

Key:
[1] = cold water
COX-3 = conditions: Simmons et al. 2002

SMILES	solubility [1]	inhibition of COX-3 (COX-3)
C=CCC1(CC(C)C)C(=O)NC(=O)NC1=O [Butalbital, 5-allyl-5-isobutylbarbituric acid]	slightly soluble	–
CC(=O)Nc1ccc(O)cc1 [acetaminophen, N-(4-hydroxyphenyl)acetamide]	–	strong inhibition
